Laboratory results reported in patent US6015823A, “4-Cyclohexylphenyl-oxazolines and their use for controlling animal pests” (Bayer Aktiengesellschaft, priority 1996, dated 2000).
Read-outs that look alike come from different tables or passages of the source.

Experiments:
[1] = tested on: peach aphids (Myzus persicae); experiment: Myzus test; format: in vivo; conditions: active compound concentration 0.1%, after 6 days; for mortality at 0.1 %: Myzus persicae, 144 h, read-out: destruction in %
Procedure: (§1) Solvent: 7 parts by weight of dimethylformamide
(§2) Emulsifier: 1 part by weight of alkylaryl polyglycol ether
(§3) To produce a suitable preparation of active compound, 1 part by weight of active compound is mixed with the stated amount of solvent and the stated amount of emulsifier, and the concentrate is diluted with water to the desired concentration.
Seedlings of the broad bean (Vicia faba) which are infested with peach aphids (Myzus persicae) are dipped into the active compound preparation of the desired concentration and placed into a plastic box.
After the desired period of time, the destruction in % is determined. 100% means that all the aphids have been killed; 0% means that none of the aphids have been killed.

[2] = tested on: mustard beetle larvae (Phaedon cochleariae); experiment: Phaedon larvae test; format: in vivo; conditions: active compound concentration 0.01%, after 7 days; for mortality at 0.01 %: Phaedon cochleariae, 168 h, read-out: destruction in %
Procedure: as §1, §2
(§4) To produce a suitable preparation of active compound, I part by weight of active compound is mixed with the stated amount of solvent and the stated amount of emulsifier, and the concentrate is diluted with water to the desired concentration.
Cabbage leaves (Brassica oleracea) are treated by being dipped into the active compound preparation of the desired concentration and are infested with mustard beetle larvae (Phaedon cochleariae), while the leaves are still moist.
After the desired period of time, the destruction in % is determined. 100% means that all the beetle larvae have been killed; 0% means that none of the beetle larvae have been killed.

[3] = tested on: common spider mite (Tetranychus urticae); experiment: Tetranychus test (OP resistant/dip treatment); format: in vivo; conditions: for mortality at 0.0001 %: Tetranychus urticae, 312 h, read-out: destruction in %
Procedure: Tetranychus test (OP resistant/dip treatment)
Solvent: 3 parts by weight of dimethylformamide
as §2
To produce a suitable preparation of active compound, 1 part by weight of active compound is mixed with the stated amount of solvent and the stated amount of emulsifier, and the concentrate is diluted with emulsifier-containing water to the desired concentrations.
Bean plants (Phaseolus vulgaris) which are heavily infested by all stages of the common spider mite (Tetranychus urticae) are dipped into the active compound preparation of the desired concentration.
After the desired period of time, the activity in % is determined. 100% means that all the spider mites have been killed; 0% means that none of the spider mites have been killed.

[4] = tested on: green rice leaf hopper (Nephotettix cincticeps); experiment: Nephotettix test; format: in vivo; conditions: active compound concentration 0.1%, after 6 days; for mortality at 0.1 %: Nephotettix cincticeps, 144 h, read-out: destruction in %
Procedure: as §1, §2, §3
Rice seedlings (Oryza sativa) are treated by being dipped into the active compound preparation of the desired concentration and are infested with the green rice leaf hopper (Nephotettix cincticeps), while the seedlings are still moist.
After the desired period of time, the destruction in % is determined. 100% means that all the leaf hoppers have been killed; 0% means that none of the leaf hoppers have been killed.

[5] = tested on: caterpillars of the owlet moth (Spodoptera frugiperda); experiment: Spodoptera frugiperda test; format: in vivo; conditions: active compound concentration 0.1%, after 7 days; for mortality at 0.1 %: Spodoptera frugiperda, 168 h, read-out: destruction in %
Procedure: Spodoptera frugiperda test
as §1, §2, §4
Cabbage leaves (Brassica oleracea) are treated by being dipped into the active compound preparation of the desired concentration and are infested with caterpillars of the owlet moth (Spodoptera frugiperda), while the leaves are still moist.
After the desired period of time, the destruction in % is determined. 100% means that all the caterpillars have been killed; 0% means that none of the caterpillars have been killed.

[6] = logp: n-octanol/water partition coefficient by reversed phase HPLC; format: physicochemical; conditions: h2o/ch3cn, read-out: logp (logarithm to base ten of the n-octanol/water partition coefficient)
From the text: *) logp: Logarithm to base ten of the n-octanol/water partition coefficient, determined by reversed phase HPLC analysis using H2 O/CH3 CN.
*^) logp: Logarithm to base ten of the noctanol/water partition
coefficient, determined by reversed phase HPLC analysis using H2

[7] = tested on: All larval stages of Lucilia cuprina (OP resistant); experiment: Fly larvae test/development-inhibitory action; format: in vivo; conditions: active compound concentration 1000 ppm, read-out: activity (larvicidal / development-inhibitory)
Procedure: Fly larvae test/development-inhibitory action
Test animals: All larval stages of Lucilia cuprina (OP resistant) [Pupae and adults (without contact with the active compound)]
Solvent: 35 parts by weight of ethylene glycol monomethyl ether 35 parts by weight of nonylphenol polyglycol ether
To prepare a suitable formulation, 3 parts by weight of active compound are mixed with 7 parts of the abovementioned solvent-emulsifier mixture, and the resulting emulsion concentrate is diluted with water to the concentration desired in each case.
For each concentration, 30 to 50 larvae are transferred to horse meat (1 cm^3) located in glass tubes, and 500 μl of the test dilution are pipetted onto the meat. The glass tubes are placed into plastic beakers whose bottom is covered with sea sand and kept in a controlled-environmentcabinet (26° C.±1.5° C., 70% relative humidity±10%). Larvicidal activity is checked after 24 hours and 48 hours. After the larvae have left (about 72 hours), the glass tubes are removed and perforated plastic lids are placed on the beakers. After 11/2 times the development period (hatching of the control flies), the hatched flies and the pupae/puparia are counted.
The criterion for the activity is the death of the treated larvae after 48 hours (larvicidal effect), or inhibition of adults hatching from the pupae or inhibition of pupation. […]

[8] = A isomer (possible geometric isomer)
[9] = B isomer (possible geometric isomer)

**Q.** With `Oc1ccc(-c2ccc(C3COC(c4c(F)cccc4F)=N3)cc2)cc1` (centres unmarked) [(A), reference compound] as the compound, how does the “activity (in words)” value [1] read?
**A.** no activity

**Q.** And the “activity (in words)” value [2]?
**A.** no activity

**Q.** What about the “destruction (in words)” value ([3]; active compound concentration 0.0001%, after 13 days) of the same compound?
**A.** no destruction

**Q.** Which “activity (in words)” value [4] does the source give for `COc1ccc(-c2ccc(C3COC(c4c(F)cccc4F)=N3)cc2)cc1` (centres unmarked) [(B), reference compound] here?
**A.** no activity

**Q.** And the “activity (in words)” value [5]?
**A.** no activity

**Q.** And the “activity (in words)” value [2]?
**A.** no activity

**Q.** With `CC(C)Oc1ccc(-c2ccc(C3COC(c4c(F)cccc4F)=N3)cc2)cc1` (centres unmarked) [(C)] as the compound, how does the “activity (in words)” value [4] read?
**A.** no activity

**Q.** Which “activity (in words)” value [4] does the source give for `CC(C)COc1ccc(-c2ccc(C3COC(c4c(F)cccc4F)=N3)cc2)cc1` (centres unmarked) [(D)] here?
**A.** no activity

**Q.** For `CCCCOc1ccc(-c2ccc(C3COC(c4c(F)cccc4F)=N3)cc2)cc1` (centres unmarked) [(E)], which “activity (in words)” value [4] is on record?
**A.** no activity

**Q.** Which results are given for `O=C1CCC(c2ccc(C3COC(c4c(F)cccc4F)=N3)cc2)CC1` (centres unmarked) [Example 1, 2-(2,6-difluorophenyl)-4-[4-(4-oxo-cyclohexyl)-phenyl]-1,3-oxazoline]?
**A.** mortality at 0.1 % [4]: 90%; chromatographic logP [6]: 2.28

**Q.** With `CC(C)ON=C1CCC(c2ccc(C3COC(c4c(F)cccc4F)=N3)cc2)CC1` (centres unmarked) [Example 4] as the compound, how does the mortality at 0.1 % [1] read?
**A.** 100%

**Q.** What about the mortality at 0.1 % [5] of the same compound?
**A.** 100%

**Q.** What about the chromatographic logP [6] of the same compound?
**A.** 4.5

**Q.** What about the mortality at 0.01 % [2] of the same compound?
**A.** 90%

**Q.** And the mortality at 0.0001 % [3]?
**A.** 98%

**Q.** What does the source list for `Fc1cccc(F)c1C1=NC(c2ccc(C3CCC4(CC3)OCC(c3ccc(Cl)cc3)O4)cc2)CO1` (centres unmarked) [Example 5, 2-(2,6-difluorophenyl)-4-[4-(4-p-chlorophenylethylenedioxo-cyclohexyl)-phenyl]-1,3-oxazoline]?
**A.** mortality at 0.1 % [5]: 100%; inhibition at 1000 ppm [7]: 100%; chromatographic logP [6]: 5.37; mortality at 0.01 % [2]: 100%; mortality at 0.0001 % [3]: 98%

**Q.** Which results are given for `CCON=C1CCC(c2ccc(C3COC(c4c(F)cccc4F)=N3)cc2)CC1` (centres unmarked) [Example 6]?
**A.** mortality at 0.1 % [4]: 100%; mortality at 0.1 % [5]: 100%; inhibition at 1000 ppm [7]: 100%; chromatographic logP [6]: 4; mortality at 0.01 % [2]: 100%; mortality at 0.0001 % [3]: 98%

**Q.** What does the source list for `CC1OC2(CCC(c3ccc(C4COC(c5c(F)cccc5F)=N4)cc3)CC2)OC1C` (centres unmarked) [Example 13]?
**A.** mortality at 0.1 % [4]: 80%; chromatographic logP [6, 8]: 4.23; chromatographic logP [6, 9]: 4.31; mortality at 0.01 % [2]: 100%; mortality at 0.0001 % [3]: 98%

**Q.** For `CC(C)(C)C1COC2(CCC(c3ccc(C4COC(c5c(F)cccc5F)=N4)cc3)CC2)O1` (centres unmarked) [Example 15], which mortality at 0.1 % [1] is on record?
**A.** 90%

**Q.** What about the chromatographic logP [6, 8] of the same compound?
**A.** 5.41

**Q.** And the chromatographic logP [6, 9]?
**A.** 5.48

**Q.** And the mortality at 0.01 % [2]?
**A.** 100%

**Q.** And the mortality at 0.0001 % [3]?
**A.** 98%

**Q.** With `CCCCCCCC1COC2(CCC(c3ccc(C4COC(c5c(F)cccc5F)=N4)cc3)CC2)O1` (centres unmarked) [Example 16] as the compound, how does the mortality at 0.1 % [1] read?
**A.** 90%

**Q.** What about the chromatographic logP [6, 8] of the same compound?
**A.** 6.25

**Q.** And the chromatographic logP [6, 9]?
**A.** 6.31

**Q.** What about the mortality at 0.0001 % [3] of the same compound?
**A.** 98%

**Q.** For `CCCCCCCCCC1COC2(CCC(c3ccc(C4COC(c5c(F)cccc5F)=N4)cc3)CC2)O1` (centres unmarked) [Example 17], which mortality at 0.1 % [1] is on record?
**A.** 90%

**Q.** And the mortality at 0.1 % [5]?
**A.** 100%

**Q.** And the chromatographic logP [6, 8]?
**A.** 7.12

**Q.** What about the chromatographic logP [6, 9] of the same compound?
**A.** 7.2

**Q.** What about the mortality at 0.01 % [2] of the same compound?
**A.** 100%

**Q.** And the mortality at 0.0001 % [3]?
**A.** 98%

**Q.** With `Fc1cccc(F)c1C1=NC(c2ccc(C3CCC(=NOCc4ccc(Cl)cc4Cl)CC3)cc2)CO1` (centres unmarked) [Example 21] as the compound, how does the mortality at 0.1 % [1] read?
**A.** 80%

**Q.** What about the chromatographic logP [6] of the same compound?
**A.** 5.92

**Q.** And the mortality at 0.0001 % [3]?
**A.** 98%
